US11324757B2, “Pharmaceutical composition for treatment of increased intraocular pressure” (NOVALIQ GMBH, priority 2010, dated 2022)
Several values for one entry are separate records, joined by “and”; a condition that tells them apart may be missing. Identical values can stand only once. Like-named read-outs stand apart in the source and are kept apart here.

Key:
[1] = descriptive term; cited from earlier work
Refractive index = type: physicochemical; settings: selected SFA's, neat
[2] = Droplet size (weight and volume) from three droppers; type: physicochemical; settings: 25° C.; for droplet volume, Glass pipette / droplet weight, Glass pipette: 2 mL glass Pasteur pipette; for droplet volume, Glass pipette / droplet volume, Injection needle / droplet volume, Eye dropper: calculated from weight; for droplet weight, Glass pipette / droplet weight, Injection needle / droplet weight, Eye dropper: mean ± SD of 10; for droplet volume, Injection needle / droplet weight, Injection needle: 20 G injection needle; for droplet volume, Eye dropper / droplet weight, Eye dropper: dropper of commercial eye drops (Hylo-Vision)
Protocol: The droplet size of selected SFA's in terms of weight and volume of droplets from three droppers was determined and compared to that of purified water. The devices used for dispensing the droplets were (a) a 2 mL Pasteur pipette (wall thickness 0.53 mm; external tip diameter: 1.50 mm; length: 150 mm) made of glass, (b) a 20 G (0.9 mm×50 mm) injection needle, and (c) a dropper from a commercial eye drops product (Hylo-Vision). The droplet weights were measured at 25° C. using a laboratory balance; the volumes were calculated. Each test was performed 10 times.

E. coli (ATCC 8739) = assay: Antimicrobial preservative effectiveness test (USP 32 <51>); type: cell-based, Escherichia coli; settings: for cfu/mL 0 h / cfu/mL 24 h / cfu/mL 48 h: approx. 22.5° C.
Protocol: (§1) An antimicrobial preservative effectiveness test in analogy to that of USP 32 <51> was carried out. Sample vials comprising […] or F6H8, respectively, were inoculated with Escherichia coli, Pseudomonas aeruginosa, Staphylococcus aureus, Candida albicans and Aspergillus niger and incubated at approx. 22.5° C.

[3] = system: P. aeruginosa (ATCC 9027); assay: as above; type: cell-based, Pseudomonas aeruginosa; settings: for cfu/mL 0 h / cfu/mL 24 h / cfu/mL 48 h: approx. 22.5° C.
Protocol: as §1

S. aureus (ATCC 6538) = assay: as above; type: cell-based, Staphylococcus aureus; settings: for cfu/mL 0 h / cfu/mL 24 h / cfu/mL 48 h: approx. 22.5° C.
Protocol: as §1

C. albicans (ATCC 10231) = assay: as above; type: cell-based, Candida albicans; settings: for cfu/mL 0 h / cfu/mL 24 h / cfu/mL 48 h: approx. 22.5° C.
Protocol: as §1

A. niger (ATCC 16404) = assay: as above; type: cell-based, Aspergillus niger; settings: for cfu/mL 0 h / cfu/mL 24 h / cfu/mL 48 h / cfu/mL 6 d: approx. 22.5° C.
Protocol: as §1

rabbit eyes (cornea) [4] = system: rabbit eyes (cornea)
Protocol: (§2) The physiological tolerability of this solution was evaluated in an ex-vivo eye irritation test (EVEIT) using rabbit eyes taken from freshly sacrificed animals. The eyes were fastened in chambers coupled micropump systems which continuously supplied the eyes with cultivation medium (Minimal Essential Medium, MEM T031-OS) without fetal calf serum. The vitality of the eyes was monitored by regularly measuring the concentration of lactate and glucose in the chamber eluate. The corneal surface of the eyes was damaged by abrasion, using a dental ceramic abrasive (638XF, Meisinger). For each eye, four lesions of 3.0 to 4.5 mm^2 were prepared.
(§3) To evaluate the effect of F4H5 and F4H5 with 1 wt.-% ethanol on the cornea, an amount of approx. 0.25 to 0.50 μl of the respective test substance was dropped onto the centre of a cornea once every hour over a period of 12 hours, followed by a 12 hour resting period in which the cornea was submersed in culture medium to simulate a closed lid during a night phase. In addition, an aqueous solution of hyaluronic acid (0.1 wt.-%) was used as reference (hyaluronic acid is know to enhance the restoration of the corneal surface after damage), culture medium was used as control, and aqueous benzalkonium chloride solution (0.01 wt.-%) was used as negative control. Each test was performed over a period of 3 days. The effects were observed by optical coherence tomography (OCT), by digitally determining the dimensions of the lesions after staining with fluorescein, and finally by a histological evaluation of the corneal epithelium and endothelium at the end of each experiment.
(§4) Each of the two vehicles was tested in two separate runs.

[5] = Contact angle (wetting) on compressed drug tablets
[6] = typical values for comparison; water at room temperature (RT); cited from earlier work
rabbit eyes (cornea) [7] = assay: Ex-vivo eye irritation test (EVEIT), corneal lesions by abrasion
Protocol: as §2, §3, §4

[8] = on fenofibrate tablet (150 mg, 15-20 kN, 13 mm)
[9] = on trospium chloride tablet (150 mg, 15-20 kN, 13 mm)

CCNC(=O)CCC/C=C\C[C@@H]1[C@@H](/C=C/[C@@H](O)CCc2ccccc2)[C@H](O)C[C@@H]1O [Bimatoprost, (Z)-7-[(1R,2R,3R,5S)-3,5-Dihydroxy-2-[(1E,3S)-3-hydroxy-5-phenyl-1-pentenyl]cyclopentyl]-N-ethyl-5-heptenamide]
solubility in water [1]: slightly soluble

CCCCC(F)(F)C(F)(F)C(F)(F)C(F)(F)F [Example F4H4]
Refractive index (Refractive index): 1,308

CCCCCC(F)(F)C(F)(F)C(F)(F)C(F)(F)F [Example F4H5]
Refractive index (Refractive index): 1,3204 | droplet volume, Glass pipette [2]: 4.7 ± 0.3 µL | droplet weight, Glass pipette [2]: 6.0 ± 0.4 mg | droplet volume, Injection needle [2]: 2.0 ± 0.3 µL | droplet weight, Injection needle [2]: 2.6 ± 0.4 mg | droplet volume, Eye dropper [2]: 9.6 ± 0.2 µL | droplet weight, Eye dropper [2]: 12.4 ± 0.2 mg | cfu/mL 0 h (E. coli (ATCC 8739)): 1 600 cfu/mL | Change in log steps 24 h (E. coli (ATCC 8739)): ≤−1.2 log steps | cfu/mL 24 h (E. coli (ATCC 8739)): <100 cfu/mL | Change in log steps 48 h (E. coli (ATCC 8739)): ≤−1.2 log steps | cfu/mL 48 h (E. coli (ATCC 8739)): <100 cfu/mL | cfu/mL 0 h [3]: 1 600 cfu/mL | Change in log steps 24 h [3]: ≤−1.2 log steps | cfu/mL 24 h [3]: <100 cfu/mL | Change in log steps 48 h [3]: ≤−1.2 log steps | cfu/mL 48 h [3]: <100 cfu/mL | cfu/mL 0 h (S. aureus (ATCC 6538)): 2 900 cfu/mL | Change in log steps 24 h (S. aureus (ATCC 6538)): ≤−1.4 log steps | cfu/mL 24 h (S. aureus (ATCC 6538)): <100 cfu/mL | Change in log steps 48 h (S. aureus (ATCC 6538)): ≤−1.4 log steps | cfu/mL 48 h (S. aureus (ATCC 6538)): <100 cfu/mL | cfu/mL 0 h (C. albicans (ATCC 10231)): 1 500 cfu/mL | Change in log steps 24 h (C. albicans (ATCC 10231)): ≤−1.2 log steps | cfu/mL 24 h (C. albicans (ATCC 10231)): <100 cfu/mL | Change in log steps 48 h (C. albicans (ATCC 10231)): ≤−1.1 log steps | cfu/mL 48 h (C. albicans (ATCC 10231)): <100 cfu/mL | cfu/mL 0 h (A. niger (ATCC 16404)): 3 000 cfu/mL | Change in log steps 24 h (A. niger (ATCC 16404)): ≤−1.4 log steps | cfu/mL 24 h (A. niger (ATCC 16404)): <100 cfu/mL | Change in log steps 48 h (A. niger (ATCC 16404)): ≤−1.2 log steps | cfu/mL 48 h (A. niger (ATCC 16404)): <100 cfu/mL | Change in log steps 6 d (A. niger (ATCC 16404)): ≤−1.2 log steps | cfu/mL 6 d (A. niger (ATCC 16404)): <100 cfu/mL | morphological and histological evaluation of cornea (rabbit eyes (cornea) [4]): entirely clear at the end of the tests, with healthy and smooth surface morphology | penetration into the cornea (OCT imaging) (rabbit eyes (cornea) [4]): no indication of penetration | tolerability by the eye (rabbit eyes (cornea) [4]): better tolerated than culture medium | contact angle [5, 8]: not measurable | contact angle [5, 9]: not measurable

CCCCCCC(F)(F)C(F)(F)C(F)(F)C(F)(F)F [Example F4H6]
Refractive index (Refractive index): 1,334

CCCCCCCC(F)(F)C(F)(F)C(F)(F)C(F)(F)F [Example F4H7]
Refractive index (Refractive index): 1,3357

CCCCCCCCC(F)(F)C(F)(F)C(F)(F)C(F)(F)F [Example F4H8]
Refractive index (Refractive index): 1,348

CCC(F)(F)C(F)(F)C(F)(F)C(F)(F)C(F)(F)C(F)(F)F [Example F6H2]
Refractive index (Refractive index): 1,295

CCCCC(F)(F)C(F)(F)C(F)(F)C(F)(F)C(F)(F)C(F)(F)F [Example F6H4]
Refractive index (Refractive index): 1,306

CCCCCCC(F)(F)C(F)(F)C(F)(F)C(F)(F)C(F)(F)C(F)(F)F [Example F6H6]
Refractive index (Refractive index): 1,3224

CCCCCCCC(F)(F)C(F)(F)C(F)(F)C(F)(F)C(F)(F)C(F)(F)F [Example F6H7]
Refractive index (Refractive index): 1,3366

CCCCCCCCC(F)(F)C(F)(F)C(F)(F)C(F)(F)C(F)(F)C(F)(F)F [Example F6H8]
Refractive index (Refractive index): 1,3432 | droplet volume, Glass pipette [2]: 5.0 ± 0.4 µL | droplet weight, Glass pipette [2]: 6.6 ± 0.6 mg | droplet volume, Injection needle [2]: 2.5 ± 0.1 µL | droplet weight, Injection needle [2]: 3.4 ± 0.2 mg | droplet volume, Eye dropper [2]: 10.3 ± 0.3 µL | droplet weight, Eye dropper [2]: 13.7 ± 0.4 mg | cfu/mL 0 h (E. coli (ATCC 8739)): 1 600 cfu/mL | Change in log steps 24 h (E. coli (ATCC 8739)): ≤−1.2 log steps | cfu/mL 24 h (E. coli (ATCC 8739)): <100 cfu/mL | Change in log steps 48 h (E. coli (ATCC 8739)): ≤−1.2 log steps | cfu/mL 48 h (E. coli (ATCC 8739)): <100 cfu/mL | cfu/mL 0 h [3]: 1 600 cfu/mL | Change in log steps 24 h [3]: ≤−1.2 log steps | cfu/mL 24 h [3]: <100 cfu/mL | Change in log steps 48 h [3]: ≤−1.2 log steps | cfu/mL 48 h [3]: <100 cfu/mL | cfu/mL 0 h (S. aureus (ATCC 6538)): 2 900 cfu/mL | Change in log steps 24 h (S. aureus (ATCC 6538)): ≤−1.4 log steps | cfu/mL 24 h (S. aureus (ATCC 6538)): <100 cfu/mL | Change in log steps 48 h (S. aureus (ATCC 6538)): ≤−1.4 log steps | cfu/mL 48 h (S. aureus (ATCC 6538)): <100 cfu/mL | cfu/mL 0 h (C. albicans (ATCC 10231)): 1 500 cfu/mL | Change in log steps 24 h (C. albicans (ATCC 10231)): ≤−1.2 log steps | cfu/mL 24 h (C. albicans (ATCC 10231)): <100 cfu/mL | Change in log steps 48 h (C. albicans (ATCC 10231)): ≤−1.1 log steps | cfu/mL 48 h (C. albicans (ATCC 10231)): <100 cfu/mL | cfu/mL 0 h (A. niger (ATCC 16404)): 1 500 cfu/mL | Change in log steps 24 h (A. niger (ATCC 16404)): ≤−1.2 log steps | cfu/mL 24 h (A. niger (ATCC 16404)): <100 cfu/mL | Change in log steps 48 h (A. niger (ATCC 16404)): ≤−1.2 log steps | cfu/mL 48 h (A. niger (ATCC 16404)): <100 cfu/mL | Change in log steps 6 d (A. niger (ATCC 16404)): ≤−1.2 log steps | cfu/mL 6 d (A. niger (ATCC 16404)): <100 cfu/mL | Change of lesion size (rabbit eyes (cornea) [4]): −100.0% | Final size of corneal lesions (rabbit eyes (cornea) [4]): 0.00 mm^2 | healing of corneal lesions (rabbit eyes (cornea) [4]): all lesions healed fully | morphological and histological evaluation of cornea (rabbit eyes (cornea) [4]): dense stromata with very few clefts and well-arranged keratocytes | contact angle [5, 8]: not measurable | contact angle [5, 9]: not measurable

CCCCCCCCCC(F)(F)C(F)(F)C(F)(F)C(F)(F)C(F)(F)C(F)(F)F [Example F6H9]
Refractive index (Refractive index): 1,3494

O [Water, reference compound]
droplet volume, Glass pipette [2]: 31.3 ± 1.4 µL | droplet weight, Glass pipette [2]: 31.2 ± 1.4 mg | droplet volume, Injection needle [2]: 11.1 ± 0.9 µL | droplet weight, Injection needle [2]: 11.0 ± 0.9 mg | droplet volume, Eye dropper [2]: 36.1 ± 2.2 µL | droplet weight, Eye dropper [2]: 36.0 ± 2.2 mg | Refractive index [6]: 1.333 | contact angle [5, 8]: 92.5 °

CC(C)OC(=O)CCCC=CCC1C(O)CC(O)C1C=CC(O)COc1cccc(C(F)(F)F)c1 (centres unmarked) [travoprost, propan-2-yl 7-[3,5-dihydroxy-2-[3-hydroxy-4-[3-(trifluoromethyl)phenoxy]-but-1-enyl]-cyclopentyl]hept-5-enoate]
solubility in water [1]: practically insoluble

CCCCCCCC(=O)CC[C@@H]1[C@@H](C/C=C\CCCC(=O)O)[C@@H](O)C[C@H]1O [unoprostone]
solubility in water [1]: practically insoluble

benzalkonium chloride [BAC, reference compound]
Final size of corneal lesions (rabbit eyes (cornea) [4]): >60 mm^2 | Initial size of corneal lesions (rabbit eyes (cornea) [4]): 16.05 mm^2 | healing of corneal lesions (rabbit eyes (cornea) [4]): rapid growth of the lesions | morphological and histological evaluation of cornea (rabbit eyes (cornea) [4]): complete disintegration of the corneal epithelium

hyaluronic acid [HA]
morphological and histological evaluation of cornea (rabbit eyes (cornea) [7]; at end of test): entirely clear at the end of the tests, with healthy and smooth surface morphology | Initial size of corneal lesions (rabbit eyes (cornea) [7]; before the test, separate runs): 13.22 mm^2 and 16.03 mm^2 and 14.87 mm^2 | healing of corneal lesions (rabbit eyes (cornea) [7]; ex-vivo rabbit eye, 3 days, fluorescein staining): Substantial healing | Change of lesion size (rabbit eyes (cornea) [7]; final vs initial size, 3 days, separate runs): −97.3% and −98.5% and −100%
